From US9051318B2, “Pyrido [2, 3-B] pyrazine compounds and their therapeutical uses such as for inhibiting ATP consuming proteins and treating diseases associated therewith” (Merck Patent GmbH, priority 2011, dated 2015)

What was measured:
GST-ALK5 = target: T1, GST-ALK5 (Homo sapiens, UniProt P36897); assay: In-vitro (enzyme) kinase flashplate assay, TGF-beta receptor kinase (Example 9); type: biochemical; conditions: GST-ALK5, GST-SMAD2 substrate, 3 mM ATP, 30° C. 45 min; read-out: TβR activity (Example 9)
T1 sequence (P36897 34-503): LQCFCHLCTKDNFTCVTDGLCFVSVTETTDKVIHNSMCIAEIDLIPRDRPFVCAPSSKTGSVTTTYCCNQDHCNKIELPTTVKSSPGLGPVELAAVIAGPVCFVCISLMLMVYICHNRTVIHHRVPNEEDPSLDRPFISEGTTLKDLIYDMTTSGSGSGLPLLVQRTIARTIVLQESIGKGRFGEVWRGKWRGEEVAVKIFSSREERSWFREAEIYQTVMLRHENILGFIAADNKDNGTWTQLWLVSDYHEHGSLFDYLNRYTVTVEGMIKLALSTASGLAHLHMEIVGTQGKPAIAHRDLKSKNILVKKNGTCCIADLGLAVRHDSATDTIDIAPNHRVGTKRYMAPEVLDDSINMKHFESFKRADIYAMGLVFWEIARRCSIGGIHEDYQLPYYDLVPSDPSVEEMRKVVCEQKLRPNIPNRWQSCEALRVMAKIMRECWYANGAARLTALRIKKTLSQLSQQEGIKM
Experimental: The kinase assay was carried out as 384-well flashplate assay. 31.2 nM of GST-ALK5, 439 nM of GST-SMAD2 and 3 mM of ATP (with 0.3 μCi of ^33P-ATP/well) were incubated in a total volume of 35 μl (20 mM of HEPES, 10 mM of MgCl2, 5 mM of MnCl2, 1 mM of DTT, 0.1% of BSA, pH 7.4) without or with test substance (5-10 concentrations) at 30° C. for 45 min. The reaction was stopped using 25 μl of 200 mM EDTA solution, filtered with suction at room temperature after 30 min, and the wells were washed with 3 times 100 μl of 0.9% NaCl solution. Radioactivity was measured in the TopCount. The IC50 values were calculated using RS 1.

[1] = system: TGF-beta-induced phosphorylation of Smad2 (Ser465/467) and Smad3 (Ser423/425) in Mv1-Lu cells; assay: Inhibition of Smad2/3 phosphorylation in Mv1Lu cells (Example 10); type: cell-based, mink Mustela vison; conditions: Neogale vison, TGF-beta 1 5 ng/ml, phospho-Smad2/3 ELISA, read-out: TβR activity (Example 10)
Experimental: This assay was used to determine the inhibitory potency of compounds on TGF-beta-induced phosphorylation of Smad2 (Ser465/467) and Smad3 (Ser423/425). Mv1-Lu cells (lung epithelial cell line from mink Mustela vison; ATCC number: CCL-64) were seeded in DMEM (Invitrogen) supplemented with 10% fetal bovine serum (Pan Biotech) at a defined cell density in 24-well or 96-well plates (24-well plate: 1.5×10^5 cells per well; 96-well plate: 4×10^4 cells per well). Cell cultures were incubated in DMEM at 37° C. and 10% CO2. On the next day, the medium was replaced and cells were serum-starved for 16-20 hours. The following day, serial dilutions of compounds were added to the wells, pre-incubated for 1.5 hrs before recombinant TGF-beta 1 ligand (final concentration 5 ng/ml; R&D systems) was added. After one hour of ligand stimulation, lysates were prepared and analyzed using an enzyme-linked immunosorbent assay kit (PathScan Phospho-Smad2 Kit, Cell Signaling Technologies). The ELISA detects phosphorylated Smad2 as well as phosphorylated Smad3 with the phospho-specific antibody. TGF-beta stimulated cells and unstimulated cells served as positive and negative controls (100% and background control). The concentration of the vehicle DMSO was kept constant at 0.2% (v/v) in all wells. Dose-response relationships were fitted using curve fitting algorithms of the RS1 statistics software package (Brooks Automation Inc. RS/1—Statistical Tools Handbook. Release 6.2) to determine the concentration at which half-maximal inhibition (IC50) of Smad2/3 phosphorylation was achieved.

Compound | IC50 (GST-ALK5) | IC50 [1]
Fc1ccccc1-c1cc(Nc2ccncc2)c2nccnc2n1 [Compound 1, [6-(2-Fluorophenyl)-pyrido[2,3-b]pyrazin-8-yl]-pyridin-4-yl-amine] | < 1000 nM | < 1000 nM
Fc1ccc(Cl)cc1-c1cc(Nc2ccncc2)c2nccnc2n1 [Compound 2, [6-(5-Chloro-2-fluoro-phenyl)-pyrido[2,3-b]pyrazin-8-yl]-pyridin-4-yl-amine] | < 1000 nM | < 1000 nM
Nc1nccc2c(-c3cc(-c4ccccc4F)nc4nccnc34)nccc12 [Compound 3, 5-[6-(2-Fluorophenyl)-pyrido[2,3-b]pyrazin-8-yl]-[2,6]naphthyridin-1-ylamine] | < 1000 nM | < 1000 nM
Nc1nccc2c(-c3cc(-c4cc(Cl)ccc4F)nc4nccnc34)nccc12 [Compound 5, 5-[6-(5-Chloro-2-fluorophenyl)-pyrido[2,3-b]pyrazin-8-yl]-[2,6]naphthyridin-1-ylamine] | – | < 1000 nM
Nc1nccc2c(-c3cc(-c4cc(F)ccc4F)nc4nccnc34)nccc12 [Compound 8, 5-[6-(2,5-Difluoro-phenyl)pyrido[2,3-b]pyrazin-8-yl]-2,6-naphthyridin-1-amine] | – | < 1000 nM
Fc1ccc(Cl)cc1-c1cc(Nc2ccnc3ccoc23)c2nccnc2n1 [Compound 14, N-[6-(5-Chloro-2-fluorophenyl)pyrido [2,3-b]pyrazin-8-yl]furo[3,2-b]pyridin-7-amine] | < 1000 nM | < 1000 nM

Results, then the molecule that gave them:

IC50 (GST-ALK5) | IC50 [1] | Compound
< 1000 nM | < 1000 nM | Nc1nccc2c(-c3cc(-c4ccccc4F)nc4nccnc34)cccc12 [Compound 4, 5-[6-(2-Fluorophenyl)-pyrido[2,3-b]pyrazin-8-yl]-isoquinolin-1-ylamine]
< 1000 nM | < 1000 nM | Nc1ncc(-c2cc(-c3ccccc3F)nc3nccnc23)c2ccncc12 [Compound 6, 4-[6-(2-Fluorophenyl)-pyrido[2,3-b]pyrazin-8-yl]-[2,7]naphthyridin-1-ylamine]
< 1000 nM | < 1000 nM | CN1CCC(n2cc(-c3cncc(-c4cc(-c5ccccc5F)nc5nccnc45)c3)cn2)CC1 [Compound 9, 6-(2-Fluorophenyl)-8-{5-[1-(1-methyl-piperidin-4-yl)-1H-pyrazol-4-yl]-pyridin-3-yl}-pyrido[2,3-b] pyrazine]
< 1000 nM | < 1000 nM | Cn1cc(-c2cncc(-c3cc(-c4ccccc4F)nc4nccnc34)c2)cn1 [Compound 10, 6-(2-Fluorophenyl)-8-[5-(1-methyl-1H-pyrazol-4-yl)-pyridin-3-yl]-pyrido[2,3-b] pyrazine]
< 1000 nM | < 1000 nM | OCCn1cc(-c2cncc(-c3cc(-c4ccccc4F)nc4nccnc34)c2)cn1 [Compound 12, 2-[4-[5-[6-(2-Fluorophenyl)pyrido [2,3-b]pyrazin-8-yl]-3-pyridyl]pyrazol-1-yl]ethanol]
